# In ChEMBL document CHEMBL3507680, “University of Dundee, Gates Library screen for HepG2 cell viability”:
# Assay: Human HepG2 cell viability assay in 384 well format
# Format: toxicity, cell-based
# Parameters: dose 125 nL, time 70.5 hour; concentration not given beside the values
# Conditions: HepG2 cells, read-out: Inhibition
row,Structure (SMILES),cytotoxicity at 70.5 h
1,CC(C)NC(=O)C(C(C)C)n1cnc2cc(F)c(F)cc21 (configuration not stated),-7.62%
2,CC(=O)N1CCN(CCNc2snc(Cl)c2C#N)CC1,-5.16%
3,CC(=O)NC1(C(=O)N2CCCN(c3cccnn3)CC2)CCCCC1,-5.29%
4,CC(Nc1ccc(CN2CCCC2=O)cc1)c1ccc(C#N)cc1 (configuration not stated),-5.25%
5,CCC(=O)NCC(=O)Nc1ncc(I)cc1C,0.64%
6,Cc1ccc(NC(=O)N2CCN(C(=O)CC3CCCC3)CC2)s1,-10.2%
7,Cc1noc(C)c1NS(=O)(=O)c1cc(Cl)c(Cl)c(C(=O)O)c1,-9.2%
8,O=C(N1CCc2ccccc2CC1)C1(O)Cc2ccccc2C1,-2.64%
9,CC(C)C(C(=O)NCC1CC1)n1cnc2cc(F)c(F)cc21 (configuration not stated),-1.42%
10,CC(C)C(C(=O)NC1CCOCC1)n1cnc2cc(F)c(F)cc21 (configuration not stated),1.78%
11,Clc1cccnc1N1CCC(NCc2cccc3cn[nH]c23)C1 (configuration not stated),-4.87%
12,O=C(CNC(=O)C1CCCC1)NCc1cnn(-c2ccc(F)cc2F)c1,-1.74%
13,CCOC(C)C(=O)Nc1ccc2c(ccn2CC)c1 (configuration not stated),1.36%
14,O=C(NCc1cnn(-c2ccc(F)cc2F)c1)C1CCCO1 (configuration not stated),-1.57%
15,Fc1ccc(C2(NCc3noc(C4CC4)n3)CCC2)cc1,8.34%
16,CC(NCc1ccccc1CN1CCCC1=O)c1ccc(C#N)cc1 (configuration not stated),4.5%
17,CN1CCC(N2CCOC3(CCCC3)C2)C1=O (configuration not stated),5.41%
18,O=C(NCCCN1CCC(OC2CCCCC2)CC1)C1CCCC1,-0.377%
19,CNC(=O)CSC(C)c1ccc(Br)cc1 (configuration not stated),2.63%
20,CN(C)C(=O)CS(=O)(=O)Cc1ccn(-c2cccc(F)c2)n1,-3.31%
21,CN(C1CCCCC1)S(=O)(=O)NC1CCN(c2ncccn2)CC1,-7.52%
22,CC1CN(c2ncnc3cccc(F)c23)CCO1 (configuration not stated),10.6%
23,O=C1CC(N(C(=O)c2ccc(-n3cccc3)cc2)C2CC2)C(=O)N1 (configuration not stated),-4.68%
24,CC(C)(C(=O)NCCCC(N)=O)c1cccc(Br)c1,-8.19%
25,O=C(Nc1cccc(F)c1)C1CCN(Cc2noc(C3CC3)n2)CC1,-13.9%
26,O=C(Nc1cccc(F)c1)N1CCN(Cc2noc(C3CC3)n2)CC1,-13.8%

row,Structure (SMILES),cytotoxicity at 70.5 h
1,Cc1noc(C)c1CC(=O)N1CCCC(c2noc(C(C)C)n2)C1 (configuration not stated),-9.31%
2,CCn1nc(C)c(CNC(=O)NCC(C)(O)c2ccc(C)o2)c1C (configuration not stated),-13.6%
3,CC1COc2ccccc2N1C(=O)c1ccnc(-n2cncn2)c1 (configuration not stated),9.86%
4,CCn1ccnc1S(=O)(=O)Cc1c(C)cc(C)c(C(C)=O)c1C,-6.82%
5,CC(CCc1ccccc1F)C(=O)NS(C)(=O)=O (configuration not stated),-8.18%
6,CCn1nc(C)c(CNC(=O)NCC(C)(O)c2ccco2)c1C (configuration not stated),-1.92%
7,O=C(Nc1cnn(Cc2ccc(Cl)cc2)c1)N[C@@H]1C=C[C@H](CO)C1,-7.72%
8,Cc1ccn(-c2ccc(N3CCN(Cc4ccccn4)CC3)nn2)n1,-7.77%
9,CC1CN(S(=O)(=O)c2cc(S(C)(=O)=O)ccc2Br)c2cccnc2O1 (configuration not stated),1.23%
10,CC(C)c1nc(C2CCCN(C(=O)CS(=O)(=O)C(C)C)C2)no1 (configuration not stated),-7.77%
11,CC1CN(c2ncnc3ccccc23)CCO1 (configuration not stated),10%
12,Cc1ccc(CN2CCOC(C)(c3cnn(C)c3)C2)cc1 (configuration not stated),-2.83%
13,CCOCCS(=O)(=O)Cc1ccn(-c2cccc(F)c2)n1,-10.1%
14,CCOC(=O)C1CCN(C(=O)CN2CCCC2c2ccsc2)CC1 (configuration not stated),-3.85%
15,COCCn1cc(C(=O)N2CCCC2c2cc(C)on2)c2ccccc21 (configuration not stated),1.11%
16,O=C(Nc1ccccc1)C1CCN(C(=O)COc2ccccc2F)CC1,7.69%
17,O=C(NCC(O)c1ccc(F)cc1F)c1cccc(F)c1 (configuration not stated),-2.46%
18,Cc1nc(NC(=O)C(C)N2CCN(c3ncccn3)CC2)sc1C (configuration not stated),-8.18%
19,O=C(NCCNc1cnccn1)N1CC=C(c2ccccc2)CC1,-8.49%
20,COc1c(C)cnc(CNC(=O)c2cnc3onc(C)c3c2)c1C,12.5%
21,CN(C)CCOc1ccc(CNC(=O)c2cccc3[nH]ncc23)cc1,9.57%
22,Cc1noc(C)c1CCC(=O)N1CCCC(n2ccnc2C)C1 (configuration not stated),3.81%
23,CC(C)Nc1cccc(C(=O)NCC(O)c2ccc(F)cc2F)c1 (configuration not stated),-1.19%
24,O=C(NCC1CCN(CCc2ccccc2)C1)c1c(F)cccc1F (configuration not stated),14.6%
25,CC(C)c1nc(C2CCCN(c3nccc(C(F)(F)F)n3)C2)no1 (configuration not stated),-2.52%
26,COC(=O)c1ccc(Cl)c(NS(=O)(=O)c2cn(C)cn2)c1,9.09%

row,Structure (SMILES),cytotoxicity at 70.5 h
1,CC(=O)NCc1ccc(C(=O)N2CCCC(n3cncn3)C2)o1 (configuration not stated),20.5%
2,CCCc1n[nH]c(C2CN(C(=O)CCCn3ccnc3C)CCO2)n1 (configuration not stated),4.08%
3,CC(C)c1cnc(CN(C)C2CCN(CCc3ccccn3)C2)o1 (configuration not stated),13.1%
4,CCNC(=O)CN1CCN(c2ccnc3c(F)ccc(F)c23)CC1,-7.66%
5,O=C(CN1CCN(c2ccnc3c(F)ccc(F)c23)CC1)NC1CC1,0.111%
6,NC(=O)c1cnc(NC2CCN(c3ccccc3)CC2)c(Cl)c1,-1.28%
7,O=C(c1csc(-c2ncccn2)n1)N1CCN(C2CCCC2)CC1,-5.27%
8,O=C(c1csc(-c2cccs2)n1)N1CCN2CCCCC2C1 (configuration not stated),-2.54%
9,COCCOCCC(=O)Nc1c(-c2ccc(F)cc2)ncn1C,17%
10,COc1ccc(-c2cnc(CN3CCCC3Cn3cncn3)o2)cc1 (configuration not stated),-6.4%
11,CC(C)CC(=O)Nc1c(-c2ccc(F)cc2)ncn1C,9.48%
12,CC(C)OCCC(=O)Nc1c(-c2ccc(F)cc2)ncn1C,2.71%
13,Cc1[nH]c(=O)sc1S(=O)(=O)N1CCCC1C(=O)NCc1ccsc1 (configuration not stated),-4.24%
14,COc1ncc(C)cc1NC(=O)COc1ccccc1F,11.7%
15,COCc1csc(NC(=O)NCc2ccsc2)n1,-4.84%
16,Cc1nsc(NCCNS(=O)(=O)c2cccc(Cl)c2)n1,9.23%
17,Cc1c(NCC(C)(C)C)cccc1C(=O)NCc1ncnn1C,14.6%
18,COc1cccc(OCC(=O)Nc2cc(C)cnc2OC)c1,2.85%
19,O=C(c1csc(-c2ncccn2)n1)N1CCN2CCCCC2C1 (configuration not stated),-5.52%
20,CC(CNS(C)(=O)=O)c1ccc(F)c(F)c1 (configuration not stated),-1.08%
21,CN(CCNc1cc(N2CCCC2CO)ncn1)Cc1ccccc1 (configuration not stated),-3.62%
22,c1cncc(CN(Cc2ccc(-n3ccnc3)cc2)CC2CCCO2)c1 (configuration not stated),13.2%
23,CS(=O)(=O)NC1CCN(c2cccc(F)c2C#N)CC1,-16.5%
24,O=C(COC1CCCC1)NCCCn1nc2ccccn2c1=O,-16.2%
25,O=C(NCC1CC1)C1CSCN1S(=O)(=O)c1ccccc1F (configuration not stated),4.99%
26,N#Cc1ccc(N2CCC(NS(=O)(=O)c3cccs3)CC2)c(F)c1,-9.83%

row,Structure (SMILES),cytotoxicity at 70.5 h
1,Cc1cccc(S(=O)(=O)N2CSCC2C(=O)NCC2CC2)c1 (configuration not stated),-2.32%
2,Cc1nc(C)n(CC2CCCN2CC(=O)NCCc2cccs2)n1 (configuration not stated),-15.5%
3,Cc1cc(N2CCC(N(C)C(=O)c3sccc3C)CC2)nc(C)n1,-4.75%
4,O=C(CCc1ccc(Cl)s1)N1CCCC(N2CCNC2=O)C1 (configuration not stated),-17.9%
5,Cc1cc(C)n(CC2CCCCN2C(=O)c2ccc3[nH]nnc3c2)n1 (configuration not stated),-17.7%
6,Cc1cnn(CC2CCCN2C(=O)c2ccc3c(c2)nnn3C)c1 (configuration not stated),-6.19%
7,CSCC(CCO)NC(=O)Nc1cccc(Br)c1C (configuration not stated),-21.2%
8,O=C(NCCCn1nc2ccccn2c1=O)NCCC1CCC1,-3.21%
9,Cc1csc(N2CCN(Cc3cccnc3)CC2C)n1 (configuration not stated),-19.6%
10,CC(=O)NCCNC(=O)CN1CCCC1Cn1nc(C)nc1C (configuration not stated),-16.9%
11,Cc1csc(N2CCN(Cc3cscn3)CC2C)n1 (configuration not stated),-4.06%
12,CCC(CC)NC(=O)NCc1ccnc(-n2ccnc2C)c1,-2.5%
13,CS(=O)(=O)NCC1CCCN(C(=O)c2ccc3c(c2)CCCC3)C1 (configuration not stated),5.26%
14,CC(C)S(=O)(=O)NCC1CCCN(C(=O)c2ccc(F)cc2)C1 (configuration not stated),9.08%
15,Cc1nccn1-c1cc(CNC(=O)C2CCC(=O)N2)ccn1 (configuration not stated),-6.29%
16,OCCN1CCC(CNCc2ccc(Br)cc2)CC1,-1.11%
17,CC(Oc1ccccc1C(F)(F)F)C(=O)NCCCC(N)=O (configuration not stated),11.1%
18,COc1c(C2CCCN2C(=O)c2ccco2)c(C)nn1C (configuration not stated),8.77%
19,COc1c(C2CCCN2C(=O)c2cc(C3CC3)on2)c(C)nn1C (configuration not stated),-5.95%
20,Cc1ccc(NC(=O)c2ccc(CC3CC(=O)NC3=O)cc2)cc1O (configuration not stated),-2.83%
21,CC1CN(C)c2ccccc2CN1C(=O)c1cnsn1 (configuration not stated),-0.187%
22,CC1CN(C)c2ccccc2CN1C(=O)c1cscn1 (configuration not stated),-5.75%
23,O=C(c1cncc(Br)c1)N1CCCc2c(F)cc(F)cc21,-3%
24,Cc1ccc2c(c1)CCCN2C(=O)c1cncc(Br)c1,20.3%
